Source: patent US20240409585A1, “MACROCYCLIC IMMUNOMODULATORS” (priority 2021, published 2024)
Numbered stars: 1 amine (or outer) side, 2 acyl side, 3 side chain; on linkers, the order of the positions; unused ones are H or OH. Bridge positions count the residues as written; N and C are the ends. Square brackets hold non-standard residues; d marks the D form. Peptide text beside a SMILES is read from it. * marks the point of attachment. ξ: configuration not given here. Ala(Nα-(CH2)3NH) = C[C@@H](C(=O)[*:2])N(CCCN[*:3])[*:1]; Phe(3-CF3) = N[C@@H](Cc1cccc(C(F)(F)F)c1)C(=O)O; Ala(morpholin-4-yl) = N[C@@H](CN1CCOCC1)C(=O)O; Phe(4-COOH) = N[C@@H](Cc1ccc(C(=O)O)cc1)C(=O)O; Bip = N[C@@H](Cc1ccc(-c2ccccc2)cc1)C(=O)O; Phe(3-Me) = Cc1cccc(C[C@H](N)C(=O)O)c1; Val(3-OH) = CC(C)(O)[C@H](N)C(=O)O; d(hPhe) = N[C@H](CCc1ccccc1)C(=O)O; 3Pal = N[C@@H](Cc1cccnc1)C(=O)O; 4Pal = N[C@@H](Cc1ccncc1)C(=O)O; Cha = N[C@@H](CC1CCCCC1)C(=O)O; Cit = NC(=O)NCCC[C@H](N)C(=O)O; Ile(3ξ) = CCC(C)[C@H](N)C(=O)O; AllylGly = C=CC[C@H](N)C(=O)O; Thr(3ξ) = CC(O)[C@H](N)C(=O)O; hSer = N[C@@H](CCO)C(=O)O; Carboxymethyl = O=C(O)C*; NMeA = CN[C@@H](C)C(=O)O; Orn = NCCC[C@H](N)C(=O)O; Dab = NCC[C@H](N)C(=O)O; Dap = NC[C@H](N)C(=O)O; ξC = NC(CS)C(=O)O

Molecular target: T1, PE-labeled human PD-L1-Ig binding to Jurkat cell line over-expressing human PD-1 (Jurkat-PD-1) (Homo sapiens, UniProt Q15116)
T1 construct: expressed in transfected cells; host or cells: Jurkat
Assay: Jurkat-PD-1 Cell Binding High-Content Screening Assay (CBA): Method 1
Conditions: Jurkat-hPD-1 cells, PE-labeled PD-L1-Ig 20 nM final; read-out: Jurkat HPDL1 PD1 IC50 (uM) (Method 1)

T1 sequence (Q15116 25-288): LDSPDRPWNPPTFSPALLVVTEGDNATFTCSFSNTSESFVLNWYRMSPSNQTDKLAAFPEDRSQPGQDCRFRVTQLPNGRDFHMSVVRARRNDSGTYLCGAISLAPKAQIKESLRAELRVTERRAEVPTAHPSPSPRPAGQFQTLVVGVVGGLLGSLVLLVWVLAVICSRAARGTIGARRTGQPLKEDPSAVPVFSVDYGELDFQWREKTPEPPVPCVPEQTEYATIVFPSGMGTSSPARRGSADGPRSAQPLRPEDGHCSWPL

Row | SMILES | IC50 [µM]
1 | CC(C)C[C@@H]1NC(=O)[C@H](Cc2c[nH]c3ccccc23)NC(=O)[C@H](CC(=O)O)NC(=O)[C@H](Cc2ccc(O)cc2)NC(=O)[C@H](Cc2ccccc2)NC(=O)CSC[C@@H](C(=O)NCC(N)=O)NC(=O)[C@H](CO)NC(=O)[C@H](C(C)C)NC(=O)[C@H](CC(C)C)NC(=O)[C@H](CC(N)=O)NC(=O)[C@H](CCO)NC(=O)[C@H](C)N(C)C(=O)[C@H](C(C)C)NC(=O)[C@H](Cc2ccc(-c3ccccc3)cc2)NC1=O [Compound 1814] ({CH2CO}-FYDWL[Bip]V[NMeA][hSer]NLVSCG-NH2; thioether N-14) | 0.3
2 | C=CC[C@@H]1NC(=O)[C@H](CC(C)C)NC(=O)[C@H](CC(N)=O)NC(=O)[C@@H](CC(C)C)NC(=O)[C@H](C)N(C)C(=O)[C@H](CC=C)NC(=O)[C@H](Cc2ccc(-c3ccccc3)cc2)NC(=O)[C@H](CC(C)C)NC(=O)[C@H](Cc2cccc(C)c2)NC(=O)[C@H](CC(=O)O)NC(=O)[C@H](Cc2ccncc2)NC(=O)[C@H](Cc2ccc(OCC(=O)O)cc2)NC(=O)CSCC(C(=O)NCC(N)=O)NC(=O)[C@H](CO)NC1=O (stereo partly drawn) [Compound 1881] ({CH2CO}-Y(Carboxymethyl)[4Pal]D[Phe(3-Me)]L[Bip][AllylGly][NMeA][dL]NL[AllylGly]S[ξC]G-NH2; thioether N-14) | 0.1
3 | CCC(C)[C@@H]1NC(=O)[C@H](Cc2ccc(-c3ccccc3)cc2)NC(=O)[C@H](C(C)C)NC(=O)[C@H](Cc2c[nH]c3ccccc23)NC(=O)[C@H](CC(=O)O)NC(=O)[C@H](Cc2ccc(OCC(=O)O)cc2)NC(=O)[C@H](C(C)O)NC(=O)CSC[C@@H](C(=O)N[C@@H](CCCN)C(N)=O)NC(=O)[C@H](C(C)O)NC(=O)[C@H](C(C)C)NC(=O)[C@H](CC2CCCCC2)NC(=O)[C@H](CCN)NC(=O)[C@@H](CC(C)C)NC(=O)[C@H](C)N(C)C1=O (stereo partly drawn) [Compound 2153] ({CH2CO}-[Thr(3ξ)]Y(Carboxymethyl)DWV[Bip][Ile(3ξ)][NMeA][dL][Dab][Cha]V[Thr(3ξ)]C[Orn]-NH2; thioether N-14) | 0.02
4 | Cc1cccc(C[C@@H]2NC(=O)[C@H](CC(=O)O)NC(=O)[C@H](Cc3ccc(OCC(=O)O)cc3)NC(=O)[C@H](Cc3ccc(OCC(=O)O)cc3)NC(=O)CSC[C@@H](C(N)=O)NC(=O)[C@H](CCC(=O)O)NC(=O)[C@H](C(C)C)NC(=O)[C@H](CC3CCCCC3)NC(=O)[C@H](CCN)NC(=O)[C@@H](CC(C)C)NC(=O)[C@H](C)N(C)C(=O)[C@H](Cc3ccc(OCC(=O)O)cc3)NC(=O)[C@H](Cc3ccc(-c4ccccc4)cc3)NC(=O)[C@H](Cc3ccc(OCC(=O)O)cc3)NC2=O)c1 [Compound 1657] ({CH2CO}-Y(Carboxymethyl)Y(Carboxymethyl)D[Phe(3-Me)]Y(Carboxymethyl)[Bip]Y(Carboxymethyl)[NMeA][dL][Dab][Cha]VEC-NH2; thioether N-14) | 0.05
5 | CC(C)C[C@H]1NC(=O)[C@H](C)N(C)C(=O)[C@H](CCC(N)=O)NC(=O)[C@H](Cc2ccc(-c3ccccc3)cc2)NC(=O)[C@H](Cc2ccc(C(=O)O)cc2)NC(=O)[C@H](Cc2cccc(C(F)(F)F)c2)NC(=O)[C@H](CC(=O)O)NC(=O)[C@H](Cc2ccc(OCC(=O)O)cc2)NC(=O)[C@H](CN2CCOCC2)NC(=O)CSC[C@@H](C(=O)N[C@@H](CCN)C(N)=O)NC(=O)[C@H](CCCN)NC(=O)[C@H](C(C)C)NC(=O)[C@H](CC2CCCCC2)NC(=O)[C@H](CCN)NC1=O [Example 2272] ({CH2CO}-[Ala(morpholin-4-yl)]Y(Carboxymethyl)D[Phe(3-CF3)][Phe(4-COOH)][Bip]Q[NMeA][dL][Dab][Cha]V[Orn]C[Dab]-NH2; thioether N-14) | 0.11
6 | CC(C)C[C@@H]1NC(=O)[C@H](CCN)NC(=O)[C@@H](CC(C)C)NC(=O)[C@H](C)N(CCCN)C(=O)[C@H](CCCNC(=N)N)NC(=O)[C@H](Cc2ccc(-c3ccccc3)cc2)NC(=O)[C@H](C(C)C)NC(=O)[C@H](Cc2c[nH]c3ccccc23)NC(=O)[C@H](CC(=O)O)NC(=O)[C@H](Cc2ccc(O)cc2)NC(=O)[C@H](CC(N)=O)NC(=O)CSC[C@@H](C(=O)N[C@@H](C)C(N)=O)NC(=O)[C@H]([C@@H](C)O)NC(=O)[C@H](C(C)C)NC1=O [Compound 1209] ({CH2CO}-NYDWV[Bip]R[Ala(Nα-(CH2)3NH)][dL][Dab]LVTCA-NH2; thioether N-14) | 0.14
7 | CC(C)C[C@@H]1NC(=O)[C@H](CCCNC(=N)N)NC(=O)[C@@H](CC(C)C)NC(=O)[C@H](C)N(C)C(=O)[C@H](CCCNC(=N)N)NC(=O)[C@H](Cc2ccc(-c3ccccc3)cc2)NC(=O)[C@H](C(C)C)NC(=O)[C@H](Cc2c[nH]c3ccccc23)NC(=O)[C@H](CC(=O)O)NC(=O)[C@H](Cc2ccc(O)cc2)NC(=O)[C@H](Cc2ccccc2)NC(=O)CSC[C@@H](C(=O)N[C@@H](C)C(N)=O)NC(=O)[C@H]([C@@H](C)O)NC(=O)[C@H](C(C)C)NC1=O [Compound 1048] ({CH2CO}-FYDWV[Bip]R[NMeA][dL]RLVTCA-NH2; thioether N-14) | 0.06
8 | Cc1cccc(C[C@@H]2NC(=O)[C@H](CC(=O)O)NC(=O)[C@H](Cc3ccc(C(=O)O)cc3)NC(=O)[C@H](Cc3ccc(OCC(=O)O)cc3)NC(=O)CSC[C@@H](C(N)=O)NC(=O)[C@H]([C@@H](C)O)NC(=O)[C@H](C(C)C)NC(=O)[C@H](CC3CCCCC3)NC(=O)[C@H](CC(N)=O)NC(=O)[C@@H](CC(C)C)NC(=O)[C@H](C)N(C)C(=O)[C@H](C(C)C)NC(=O)[C@H](Cc3ccc(-c4ccccc4)cc3)NC(=O)[C@H](CC(C)C)NC2=O)c1 [Compound 1683] ({CH2CO}-Y(Carboxymethyl)[Phe(4-COOH)]D[Phe(3-Me)]L[Bip]V[NMeA][dL]N[Cha]VTC-NH2; thioether N-14) | 0.03
9 | CC(C)C[C@@H]1NC(=O)[C@H](CCCCN)NC(=O)[C@@H](CC(C)C)NC(=O)[C@H](C)N(C)C(=O)[C@H](Cc2cnc[nH]2)NC(=O)[C@H](Cc2ccc(-c3ccccc3)cc2)NC(=O)[C@H](C(C)C)NC(=O)[C@H](Cc2c[nH]c3ccccc23)NC(=O)[C@H](CC(=O)O)NC(=O)[C@H](Cc2ccc(O)cc2)NC(=O)[C@H](CC(N)=O)NC(=O)CSC[C@@H](C(=O)N[C@@H](C)C(N)=O)NC(=O)[C@H]([C@@H](C)O)NC(=O)[C@H](C(C)C)NC1=O [Compound 1481] ({CH2CO}-NYDWV[Bip]H[NMeA][dL]KLVTCA-NH2; thioether N-14) | 0.12
10 | Cc1cccc(C[C@@H]2NC(=O)[C@H](CC(=O)O)NC(=O)[C@H](Cc3ccc(O)cc3)NC(=O)[C@H](CN)NC(=O)CSC[C@@H](C(=O)N[C@@H](C)C(N)=O)NC(=O)[C@H]([C@@H](C)O)NC(=O)[C@H](C(C)C)NC(=O)[C@H](CC(C)C)NC(=O)[C@H](CCN)NC(=O)[C@@H](CC(C)C)NC(=O)[C@H](C)N(C)C(=O)[C@H](CCCNC(N)=O)NC(=O)[C@H](Cc3ccc(-c4ccccc4)cc3)NC(=O)[C@H](C(C)C)NC2=O)c1 [Compound 1422] ({CH2CO}-[Dap]YD[Phe(3-Me)]V[Bip][Cit][NMeA][dL][Dab]LVTCA-NH2; thioether N-14) | 0.05
11 | CC(C)C[C@@H]1NC(=O)[C@H](Cc2c[nH]c3ccccc23)NC(=O)[C@H](CC(=O)O)NC(=O)[C@H](Cc2ccc(O)cc2)NC(=O)[C@H](Cc2cnc[nH]2)NC(=O)CSC[C@@H](C(=O)NCC(N)=O)NC(=O)[C@H](CO)NC(=O)[C@H](C(C)C)NC(=O)[C@H](CC(C)C)NC(=O)[C@H](CC(N)=O)NC(=O)[C@H](CC(N)=O)NC(=O)[C@H](C)N(C)C(=O)[C@H](C(C)C)NC(=O)[C@H](Cc2ccc(-c3ccccc3)cc2)NC1=O [Compound 1808] ({CH2CO}-HYDWL[Bip]V[NMeA]NNLVSCG-NH2; thioether N-14) | 0.86
12 | CC(C)C[C@@H]1NC(=O)[C@H](Cc2c[nH]c3ccccc23)NC(=O)[C@H](CC(=O)O)NC(=O)[C@H](Cc2ccc(O)cc2)NC(=O)[C@H](Cc2cccnc2)NC(=O)CSC[C@@H](C(=O)NCC(N)=O)NC(=O)[C@H](CO)NC(=O)[C@H](C(C)C)NC(=O)[C@H](CC(C)C)NC(=O)[C@H](CC(N)=O)NC(=O)[C@@H](C)NC(=O)[C@H](C)N(C)C(=O)[C@H](C(C)C)NC(=O)[C@H](Cc2ccc(-c3ccccc3)cc2)NC1=O [Compound 1743] ({CH2CO}-[3Pal]YDWL[Bip]V[NMeA][dA]NLVSCG-NH2; thioether N-14) | 0.02
13 | CCNC(=O)[C@H](CCN)NC(=O)[C@@H]1CSCC(=O)N[C@@H](Cc2ccncc2)C(=O)N[C@@H](Cc2ccc(C(=O)O)cc2)C(=O)N[C@@H](CC(=O)O)C(=O)N[C@@H](Cc2c[nH]c3ccccc23)C(=O)N[C@@H](CC(C)C)C(=O)N[C@@H](Cc2ccc(-c3ccccc3)cc2)C(=O)N[C@@H]([C@@H](C)CC)C(=O)N(C)[C@@H](C)C(=O)N[C@H](CC(C)C)C(=O)N[C@@H](CCN)C(=O)N[C@@H](CC2CCCCC2)C(=O)N[C@@H](C(C)(C)O)C(=O)N[C@@H](CO)C(=O)N1 [Compound 1849] ({CH2CO}-[4Pal][Phe(4-COOH)]DWL[Bip]I[NMeA][dL][Dab][Cha][Val(3-OH)]SC[Dab]-NHEt; thioether N-14) | 0.01
14 | CC(C)C[C@@H]1NC(=O)[C@H](CCCNC(=N)N)NC(=O)[C@@H](CCc2ccccc2)NC(=O)[C@H](C)N(C)C(=O)[C@H](CCCNC(=N)N)NC(=O)[C@H](Cc2ccc(-c3ccccc3)cc2)NC(=O)[C@H](C(C)C)NC(=O)[C@H](Cc2c[nH]c3ccccc23)NC(=O)[C@H](CC(=O)O)NC(=O)[C@H](Cc2ccc(O)cc2)NC(=O)[C@H](Cc2ccccc2)NC(=O)CSC[C@@H](C(=O)NCC(N)=O)NC(=O)[C@H](CO)NC(=O)[C@H](C(C)C)NC1=O [Compound 1018] ({CH2CO}-FYDWV[Bip]R[NMeA][d(hPhe)]RLVSCG-NH2; thioether N-14) | 0.12
15 | CC(C)C[C@@H]1NC(=O)[C@H](CCN)NC(=O)[C@@H](CC(C)C)NC(=O)[C@H](C)N(C)C(=O)[C@H](CCCNC(=N)N)NC(=O)[C@H](Cc2ccc(-c3ccccc3)cc2)NC(=O)[C@H](C(C)C)NC(=O)[C@H](Cc2c[nH]c3ccccc23)NC(=O)[C@H](CC(=O)O)NC(=O)[C@H](Cc2ccc(C(=O)O)cc2)NC(=O)[C@H](CN)NC(=O)CSC[C@@H](C(=O)N[C@@H](C)C(N)=O)NC(=O)[C@H]([C@@H](C)O)NC(=O)[C@H](C(C)C)NC1=O [Compound 1451] ({CH2CO}-[Dap][Phe(4-COOH)]DWV[Bip]R[NMeA][dL][Dab]LVTCA-NH2; thioether N-14) | 0.08
